In patent US20130316374A1, “BREAST CANCER DIAGNOSTICS” (IMBA - INSTITUT FUR MOLEKULARE BIOTECHNOLOGIE GMBH, priority 2010, published 2013):

System: mammary epithelial cells
Experiment: γ-irradiation induced mammary epithelial cell apoptosis in vivo (active Caspase 3)
Set-up: species or system mouse
Settings: 5 Gray
Protocol: a, Western blotting for phosphorylated (P) IKKα, total IKKα, phosphorylated (P) p65 NFκB, total p65 NFκB, phosphorylated (P) IκBα, and total IκBα in isolated primary mouse mammary gland epithelial cells (MECs) in response to RANKL stimulation (1 μg/ml). […] Expression was determined by qRT-PCR. […] Apoptosis was detected by immunostaining for active Caspase 3. f, Apoptotic nuclei of epithelial cells (arrows) are shown for representative mammary gland sections. Magnifications ×40. g, Quantification of mammary epithelial apoptosis. A minimum of 5000 nuclei was counted for each mouse. […]
a,b, Reduced induction of mammary epithelial cell apoptosis in response to γ-irradiation in IKKαhu Δmam females. […] 24 hours after irradiation, apoptosis was detected by immunostaining for active Caspase 3. a, Apoptotic nuclei of epithelial cells (arrows) are shown for representative mammary gland sections. Magnifications ×40. b, Quantification of mammary epithelial apoptosis. A minimum of 5000 nuclei was counted for each mouse. […]
For histological analysis, 5 μm sections were cut and stained with hematoxylin and eosin (H&E). […] Histomorphometric indices (proliferation and apoptosis) were calculated as the number of positive epithelial cells divided by the total number of epithelial cells, with no fewer than 1000 nuclei for Ki67 stainings and no fewer than 5000 cells for active Caspase 3 staining counted per section. […]

## CC(=O)O[C@]1(C(C)=O)CC[C@H]2[C@@H]3C[C@H](C)C4=CC(=O)CC[C@]4(C)[C@H]3CC[C@@]21C [MPA, medroxyprogesterone acetate]
Control females, MPA pellet
  γ-irradiation-induced apoptosis of mammary epithelial cells: protected from γ-irradiation-induced apoptosis
Loss of RANK expression on mammary epithelial cells (RANK^Δmam)
  protective effects of MPA on γ-irradiation-induced cell death: abrogated
